Experiment: Measurement of pKa of ethanolamine (potentiometric titration)
Conditions: aqueous solution of the ethanolamine

- pKa: 7.48
SMILES: COCCOCCN(CCOCCOC)CCOCCOC [Tris[2-(2-methoxyethoxy)ethyl]amine, tris[2-(2-methoxyethoxy)ethyl]amine]
